Biological target: T1, ATM (Homo sapiens, UniProt Q13315)
T1 construct: endogenous in cells; host or cells: HT29 cells (ECACC #85061109)
Test: Assay a): ATM cellular potency (pATM Ser1981 in irradiated HT29 cells)
Type: cell-based
Details: 1 h compound incubation, X-ray irradiation ~600 cGy, pATM (Ser1981) staining 1 h later; read-out: Assay a) ATM Cell IC50
Protocol: IC50 values were calculated using a smart fitting model in Genedata.
Most ATM molecules in the cell are rapidly phosphorylated on this site after doses of radiation as low as 0.5 Gy, and binding of a phosphospecific antibody is detectable after the introduction of only a few DNA double-strand breaks in the cell.
The rationale of the pATM assay is to identify inhibitors of ATM in cells. HT29 cells are incubated with test compounds for 1 hr prior to X-ray-irradiation. 1 h later the cells are fixed and stained for pATM (Ser1981). The fluorescence is read on the arrayscan imaging platform.
The following morning compounds of Formula (I) in 100% DMSO were added to assay plates by acoustic dispensing. After 1 h incubation at 37° C. and 5% CO2, plates (up to 6 at a time) were irradiated using the X-RAD 320 instrument (PXi) with equivalent to ˜600 cGy. Plates were returned to the incubator for a further 1 h. […] Then 20 μl of 0.1% Triton X100 in PBS was added and incubated for 20 minutes at r.t., to permeabalise cells. Then the plates were washed once with 50 μl/well PBS, using a Biotek EL405 plate washer.
After 1 h incubation at r.t., the plates were washed three times with 50 μl/well PBS, using a Biotek EL405 plate washer, and plates were sealed and kept in PBS at 4° C. until read. Plates were read using an ArrayScan VTI instrument, using an XF53 filter with 10× objective.

T1 sequence (Q13315 whole entry): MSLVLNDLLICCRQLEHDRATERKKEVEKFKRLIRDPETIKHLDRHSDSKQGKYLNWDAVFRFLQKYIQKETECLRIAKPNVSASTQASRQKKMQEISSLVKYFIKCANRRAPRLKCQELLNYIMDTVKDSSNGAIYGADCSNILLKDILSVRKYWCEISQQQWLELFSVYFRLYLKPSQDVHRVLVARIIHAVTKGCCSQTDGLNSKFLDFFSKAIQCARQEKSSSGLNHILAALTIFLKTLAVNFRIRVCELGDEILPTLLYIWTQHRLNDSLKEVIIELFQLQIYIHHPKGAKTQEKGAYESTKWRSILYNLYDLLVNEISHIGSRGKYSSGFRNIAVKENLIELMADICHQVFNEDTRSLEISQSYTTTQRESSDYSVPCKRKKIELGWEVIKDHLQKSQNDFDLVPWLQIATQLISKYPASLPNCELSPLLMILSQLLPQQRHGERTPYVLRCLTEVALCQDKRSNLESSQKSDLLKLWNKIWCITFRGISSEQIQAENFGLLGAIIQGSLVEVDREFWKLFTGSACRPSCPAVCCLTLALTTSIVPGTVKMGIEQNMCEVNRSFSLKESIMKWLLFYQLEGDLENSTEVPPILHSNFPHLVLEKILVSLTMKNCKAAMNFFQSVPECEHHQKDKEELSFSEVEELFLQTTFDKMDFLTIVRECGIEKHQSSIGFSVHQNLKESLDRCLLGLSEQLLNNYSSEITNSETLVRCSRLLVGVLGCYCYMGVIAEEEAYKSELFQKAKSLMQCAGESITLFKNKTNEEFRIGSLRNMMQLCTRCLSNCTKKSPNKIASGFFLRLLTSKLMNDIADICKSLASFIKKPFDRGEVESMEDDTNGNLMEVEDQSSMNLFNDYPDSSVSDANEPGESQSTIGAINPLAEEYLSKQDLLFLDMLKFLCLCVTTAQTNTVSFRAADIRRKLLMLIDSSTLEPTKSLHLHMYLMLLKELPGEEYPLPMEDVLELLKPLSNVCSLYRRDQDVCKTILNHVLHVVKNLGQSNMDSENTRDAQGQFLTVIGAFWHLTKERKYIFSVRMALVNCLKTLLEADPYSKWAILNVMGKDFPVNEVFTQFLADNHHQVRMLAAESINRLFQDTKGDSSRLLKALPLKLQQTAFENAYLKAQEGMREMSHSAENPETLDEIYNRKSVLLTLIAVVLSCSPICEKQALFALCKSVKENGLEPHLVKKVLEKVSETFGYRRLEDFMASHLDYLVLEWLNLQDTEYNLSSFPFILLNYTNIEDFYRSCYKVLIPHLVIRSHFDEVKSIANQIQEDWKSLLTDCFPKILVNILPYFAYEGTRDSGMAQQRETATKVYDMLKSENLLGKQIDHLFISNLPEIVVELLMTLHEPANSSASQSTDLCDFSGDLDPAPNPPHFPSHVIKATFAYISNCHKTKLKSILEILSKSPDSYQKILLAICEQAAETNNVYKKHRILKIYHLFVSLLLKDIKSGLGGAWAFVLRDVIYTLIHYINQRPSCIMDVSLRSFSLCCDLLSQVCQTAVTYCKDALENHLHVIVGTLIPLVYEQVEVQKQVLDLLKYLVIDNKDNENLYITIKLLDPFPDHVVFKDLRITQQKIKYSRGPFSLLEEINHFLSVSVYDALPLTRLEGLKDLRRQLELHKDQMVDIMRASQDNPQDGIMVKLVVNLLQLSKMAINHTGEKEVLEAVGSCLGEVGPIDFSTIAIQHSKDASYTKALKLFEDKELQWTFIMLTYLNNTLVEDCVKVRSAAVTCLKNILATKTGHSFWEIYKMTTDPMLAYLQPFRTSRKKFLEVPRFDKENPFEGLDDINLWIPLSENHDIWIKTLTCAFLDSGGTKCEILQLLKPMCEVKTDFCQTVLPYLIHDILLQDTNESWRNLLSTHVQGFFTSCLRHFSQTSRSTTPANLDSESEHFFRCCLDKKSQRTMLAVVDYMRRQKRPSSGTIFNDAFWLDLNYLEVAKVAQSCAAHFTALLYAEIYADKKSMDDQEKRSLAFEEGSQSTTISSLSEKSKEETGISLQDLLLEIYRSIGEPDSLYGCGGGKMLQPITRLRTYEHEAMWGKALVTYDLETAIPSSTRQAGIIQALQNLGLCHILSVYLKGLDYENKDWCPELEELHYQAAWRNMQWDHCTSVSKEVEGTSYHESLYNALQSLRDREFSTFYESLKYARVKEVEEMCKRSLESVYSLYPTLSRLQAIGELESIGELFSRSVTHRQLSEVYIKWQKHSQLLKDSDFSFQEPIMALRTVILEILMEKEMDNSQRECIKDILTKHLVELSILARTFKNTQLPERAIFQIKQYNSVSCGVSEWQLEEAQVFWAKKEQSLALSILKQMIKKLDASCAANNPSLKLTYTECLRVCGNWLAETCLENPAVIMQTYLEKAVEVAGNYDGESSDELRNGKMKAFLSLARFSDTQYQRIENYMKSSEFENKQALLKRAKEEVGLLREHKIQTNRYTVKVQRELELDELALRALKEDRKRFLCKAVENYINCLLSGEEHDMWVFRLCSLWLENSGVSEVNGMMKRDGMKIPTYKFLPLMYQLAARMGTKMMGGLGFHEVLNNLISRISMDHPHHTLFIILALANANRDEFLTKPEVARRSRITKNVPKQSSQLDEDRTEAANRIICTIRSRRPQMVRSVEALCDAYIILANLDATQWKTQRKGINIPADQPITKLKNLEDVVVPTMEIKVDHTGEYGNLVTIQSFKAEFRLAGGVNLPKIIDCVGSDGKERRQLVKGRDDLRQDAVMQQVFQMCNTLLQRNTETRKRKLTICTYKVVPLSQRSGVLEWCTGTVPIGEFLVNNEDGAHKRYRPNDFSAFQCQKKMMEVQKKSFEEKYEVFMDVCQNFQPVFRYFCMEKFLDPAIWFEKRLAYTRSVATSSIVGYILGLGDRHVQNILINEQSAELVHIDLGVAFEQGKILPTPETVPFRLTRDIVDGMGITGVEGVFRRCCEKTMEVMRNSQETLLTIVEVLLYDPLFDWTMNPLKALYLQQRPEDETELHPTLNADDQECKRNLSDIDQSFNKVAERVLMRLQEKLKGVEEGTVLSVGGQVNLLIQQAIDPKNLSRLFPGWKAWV

Row | IC50 | Compound
1 | 7.72 nM | CNCCCOc1ccc(-c2ccc3nnc(C(N)=O)c(N[C@@H](C)C4CCOCC4)c3c2)cn1 [Example 4, 6-[6-(3-Methylaminopropoxy)pyridin-3-yl]-4-[[(1S)-1-(oxan-4-yl)ethyl]amino]cinnoline-3-carboxamide]
2 | 4.91 nM | CNCCCOc1ccc(-c2ccc3nnc(C(=O)NC)c(N[C@@H](C)C4CCOCC4)c3c2)cn1 [Example 5, N-Methyl-6-[6-(3-methylaminopropoxy)pyridin-3-yl]-4-[[(1S)-1-(oxan-4-yl)ethyl]amino]cinnoline-3-carboxamide]

— patent US20190099421A1, “CINNOLIN-4-AMINE COMPOUNDS AND THEIR USE IN TREATING CANCER” (AstraZeneca AB, priority 2016, published 2019)
